In patent US20260355330A1, “CELL PENETRATING PEPTIDES AND USES THEREOF” (VECTIOPEP OÜ, priority 2022, published 2026):
Entries after “also recorded” stand apart in the source; their conditions may differ.

Columns and labels:
CHO-K1 cells [1] = experiment: Comparison of reporter levels in cells post-transfection of pDNA or mRNA delivered by CPPs; type: cell-based; settings: in words, FIG. 2
Protocol: FIG. 2: Comparison of reporter levels in cells post-transfection of pDNA or mRNA delivered by CPPs (P14, NF55 and NF71; relative light units normalised to total protein in the cell lysate (RLU/mg)). Naked mRNA and untreated cells (UT) were used as controls.
Adherent CHO-K1 cells were grown in Dulbecco's Modified Eagle's Medium (DMEM), which were supplemented with 0.1 mM non-essential amino acids, 1.0 mM sodium pyruvate, 100 U/ml penicillin, and […]. For complete media, 10% (final) fetal bovine serum (FBS) was added. Cells were maintained in a humidified incubator at 37 °C, 5% CO2. Cell viability and confluence was assessed daily and the cell density was reduced regularly. For cell counting, we used the CytoSMART cell counter accompanied by 0.4% trypan blue staining prior measurement. The multi-well plates with cell cultures used for experiments were incubated in a humidified incubator at 37 °C, 5% CO2.
For in vitro experiments 0.1 μg of nucleic acid (plasmid DNA (pDNA) or mRNA) was used per 96-well plate well. For CPP/NA complex formation, the diluted NA was mixed with CPP in water. Complexes were formed based on the theoretical charge ratio (CR) of positive charges from the peptide in excess to the negative charges from nucleic acid backbone, at charge ratio 3:1 with peptide in excess. […]
For reporter luminescence (expressed from firefly luciferase encoding mRNA or plasmid pDNA) assessment in adherent cell culture, 10,000 cells per 96-well plate well were seeded in 100 μl of media one day prior to transfection. […]
24 hours post-transfection, the media was aspirated, cells were washed with 1×PBS, and 30 μl of lysis buffer (0.1% Triton X100 in 1×PBS) was added. […] From the lysate, 20 μl was transferred to a black frame white well 96-well plate for luminescence measurement after addition of substrate luciferin (PerkinElmer) in buffer. The luminescence signal was detected with GloMax® 96 microplate luminometer equipped with GloMax® 1.9.2 software (Promega). […]

[2] = in words; previously reported; cited from earlier work
CHO-K1 cells [3] = experiment: Delivery of reporter mRNA with CPPs in cell culture (luciferase luminescence 24 h post-transfection); type: cell-based
Procedure, shortened: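 CHO-K1 cells (10,000/well) transfected in 10% FBS DMEM with 0.1 μg firefly luciferase mRNA complexed with CPP at 3:1 charge ratio (peptide excess). Luminescence read in lysates 24 h later, normalised to BCA total protein (RLU/mg).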

[4] = in words; previously reported; cited from earlier work; remark: listed apart in the source
[5] = test system: liver, spleen, lung, kidney, heart and thymus of Balb/c mice; experiment: Biodistribution of reporter levels post-transfection of mRNA or pDNA with CPPs in vivo (tissue homogenate)
Protocol: FIG. 3: Biodistribution of reporter levels post-transfection of mRNA or pDNA with NFs or PFs CPPs in vivo. Reporter gene product levels were evaluated from the whole tissue homogenates collected post mortem. Results are shown as the fold change to mRNA or pDNA treated mice.
The transfection complexes (CPP/mRNA) were formed using 10 μg of mRNA mixed with each peptide at indicated charge ratios (CRs) in MQ water in a final volume of 100 μl. CRs were calculated theoretically and account for both the positive charges of the peptide and negative charges of the nucleic acid. The transfection complexes (CPP/mRNA and CPP/pDNA) were formed using 50 μg of mRNA mixed with each peptide at indicated charge ratios (CRs) in MQ water in a final volume of 168 μl. The complexes were incubated for 30 minutes at room temperature and then mixed with equal volume of 10% glucose (resulting in a final solution of 5% glucose in a total volume of 200 μl for 10 μg dose groups and 336 μl for 50 μg dose groups) and immediately injected intravenously via the tail vein.
The reporter gene (luciferase) expression levels were evaluated from the tissue homogenate post mortem 16-24 h after single injection.
In order to determine to which organs in vivo mRNAs may be delivered to with NickFect or PepFect CPPs, mRNA complexes with NF55, NF71 and PF14 were formed and injected through the tail vein of Balb/c mice (FIG. 3A). The organs were harvested 24 hours after the single injection and reporter signal was measured from whole tissue homogenates. The biodistribution of reporter levels was measured in liver, spleen, lung, kidney, heart and thymus.
In order to compare the biodistribution profiles between harvested organs when using either mRNA or pDNA as cargo, NF424 was used to transfect these 2 types of nucleic acids in vivo (FIG. 3B and Table 4).

[6] = mRNA delivery, i.v. tail vein, 24 h after single injection, FIG. 3: fold change to mRNA or pDNA treated mice

Substance: NF71: SEQ ID NO: 14; HHYHHGO*ILLKALKALAKAIL; control/comparator construct
- Efficiency of mRNA transfection (parallel pDNA/mRNA comparison) (CHO-K1 cells [1]; mRNA cargo): not effective tools for mRNA transfection/delivery; also recorded: not an efficient delivery vector for mRNA
- Efficiency of pDNA transfection (parallel pDNA/mRNA comparison) (CHO-K1 cells [1]; pDNA cargo): very efficient transfection reagents for pDNA delivery
- miRNA delivery efficiency [2]: very efficient for siRNA and miRNA delivery; also recorded: very efficient for siRNA and miRNA transfections; also recorded: the most efficient in vivo
- Average RLU/mg (reporter levels post-transfection of mRNA) (CHO-K1 cells [3]; firefly luciferase mRNA, 0.1 μg per well, charge ratio 3:1, serum containing media, 24 h, RLU normalised to total protein in lysate): 3 505 987 RLU/mg
- Efficiency of mRNA transfection/delivery (CHO-K1 cells [3]; in words, FIG. 1 / Table 2, cell culture): not efficient for mRNA delivery
- siRNA delivery efficiency [4]: very efficient for siRNA and miRNA delivery; also recorded: very efficient for siRNA and miRNA transfections; also recorded: the most efficient, even more efficient than NF55
- Organ distribution of mRNA delivery ([5]; in words, mRNA cargo): delivered mRNA mostly into the spleen, with very low transfection levels seen in other organs
- Reporter level, Liver [5, 6]: 8
- Reporter level, Lung [5, 6]: 6
- Reporter level, Spleen [5, 6]: 124
